Measurements: patent US20240174693A1, “SOMATOSTATIN RECEPTOR SUBTYPE 4 (SSTR4) AGONISTS AND THEIR APPLICATIONS” (Humanwell Pharmaceutical US, priority 2022, published 2024)
Where two headings read alike, the source gives them in different places.

What was measured:
[1] = Plasma protein binding by dialysis; type: in vitro ADME; settings: rat plasma; for Protein Binding Fu(%) / fraction unbound at 5 h, 1 μM: 1 μM, 5 hours dialysis at 37° C.; for fraction unbound at 5 h, 1 μM: read-out: Protein Binding Fraction unbound (fu) (converted)
Method: The following solutions were prepared: Solution A (0.5 mM) 10 μL of 10 mM stock solution was added into 190 μL of DMSO and Solution B (0.02 mM): 8 μL of Solution A was added into 192 μL of 0.05 M sodium phosphate buffer. The final DMSO concentration in Solution B is 4%.
A 96-well plate was preloaded with 380 μL aliquots of plasma in the wells designated for plasma and buffer, respectively. 20 μL of Solution B (0.02 mM of test and reference compounds) was spiked into the pre-loaded plasma in the 96-well plate. The final test concentration was 1 μM containing 0.2% DMSO.
Aliquots of 100 μL of blank dialysis buffer were applied to the receiver side of dialysis chambers. Next aliquots of 100 μL of the plasma spiked with test and reference compounds were applied to the donor side of the dialysis chambers. Blank buffer was added to the receiver first and the buffer and plasma chambers were clearly marked to avoid cross contamination.
Aliquots of 25 μL of plasma spiked with test and reference compounds were placed in 96-well sample preparation plates as t=0 min plasma samples. The aliquots were mixed with the same volume of blank buffer (50:50, v/v). The samples were quenched with 200 μL of acetonitrile containing internal standard (IS). The dialysis block was covered with a plastic lid and the entire apparatus was placed on a shaker (60 rpm) for 5 hours at 37° C.
25 μL aliquot from both the donor sides and receiver sides of the dialysis apparatus were placed into new sample preparation plates and mixed with the same valune of opposite matrixes (blank buffer to plasma and vice versa). The sample was quenched with 200 μL acetonitrile containing internal standard. All the samples from 0 hour to 5 hours were vortexed at 600 rpm for 10 minutes followed by centrifugation at 5594 g for 15 minutes (Thermo Multifuge×3R). 50 μL of the supernatant was transferred to a new 96-well plate and the sample was mized with 50 μL of Mili-Q water. The sample plate was covered and stored in a −20° C. freezer. The samples were subsequently analyzed by LC/MS/MS.

Thermodynamic solubility = type: physicochemical; settings: aqueous buffer, thermodynamic from solid, PBS(Ph 7.4), equilibrated over night at room temperature
Method: Assay buffer was added into compound powder to make 4 mg/ml solution. Sample tubes were shaken for 1 hour at 1000 rpm, then equilibrated over night at room temperature. Samples were centrifuged for 10 minutes at 12000 rpm to precipitate out un-dissolved particles. Supernatants were transferred to new tubes. Concentrations of the supernatants after centrifugation were determined by LCMSMS detection.

CYP2C19 = target: T1, CYP2C19 (Homo sapiens, UniProt P33261); assay: CYP inhibition in HLM, CYP2C19; type: in vitro ADME; settings: read-out: CYP inhibition (IC50 um) 2C19
T1 construct: from tissue; host or cells: liver microsomes (HLM)
T1 sequence (P33261 whole entry): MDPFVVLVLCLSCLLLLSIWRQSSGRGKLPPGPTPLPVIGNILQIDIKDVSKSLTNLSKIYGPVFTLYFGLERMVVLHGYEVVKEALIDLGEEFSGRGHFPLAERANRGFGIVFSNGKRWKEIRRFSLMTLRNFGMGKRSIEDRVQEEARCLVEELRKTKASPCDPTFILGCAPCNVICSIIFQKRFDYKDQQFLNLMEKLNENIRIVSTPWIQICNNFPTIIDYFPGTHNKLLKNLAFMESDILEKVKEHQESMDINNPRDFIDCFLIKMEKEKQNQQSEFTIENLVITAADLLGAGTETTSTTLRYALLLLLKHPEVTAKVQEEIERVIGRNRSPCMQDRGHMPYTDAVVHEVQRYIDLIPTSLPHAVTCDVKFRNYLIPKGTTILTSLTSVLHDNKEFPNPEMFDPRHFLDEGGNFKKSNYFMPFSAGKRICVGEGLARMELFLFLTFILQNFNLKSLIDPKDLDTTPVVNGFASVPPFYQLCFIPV
Method: (§1) 0.1 M potassium phosphate buffer (K-buffer), pH 7.4 was preheated. K-buffer was prepared by mixing 9.5 mL Stock A into 40.5 mL Stock B. The total volume was brought to 500 mL with Milli-Q water. The buffer was titrated with KOH or H3PO4 to pH 7.4. Stock A (1 M monobasic potassium phosphate) was prepared by adding 136.5 g of monobasic potassium phosphate into 1 L of Milli-Q water. Stock B (1 M dibasic potassium phosphate) was prepared by adding 174.2 g of dibasic potassium phosphate in 1 L of Milli-Q water.
(§2) Serial dilution for test compound and reference inhibitors (400×) was prepared in a 96-well plate. 8 μL of 10 mM test compounds was transferred to 12 μL of ACN. Inhibitor spiking solution was prepared for CYP1A2, CYP2C9 and CYP2D6 in cocktail by adding 12 μL of 1 mM α-Naphthoflavon, 10 μL of 40 mM Sulfaphenazole, 10 μL of 10 mM Quinidine, and 8 μL of DMSO. Individual inhibitor spiking solution for CYP3A4 and CYP2C19 was prepared by adding 8 μL of DMSO stock to 12 μL of ACN. 1:3 serial dilutions were performed in DMSO:ACN mixture (v/v: 40:60).
(§3) NADPH cofactor was prepared by dissolving 66.7 mg NADPH in 10 mL 0.1 M K-buffer, pH7.4. 4×substrate (2 mL for each isoform) was prepared. HLM was added were required on ice. 0.2 mg/mL HLM solution was prepared using 10 μL of 20 mg/mL to 990 μL of 0.1 M K-buffer on ice. 400 μL of 0.2 mg/mL HLM were added to the assay wells and then 2 μL of 400×test compound set were added into the designated wells on ice. 200 μL of 0.2 mg/mL HLM was added to the assay wells and followed by 1 μL of serially diluted reference inhibtor solution into the designated wells on ice. The following solutions were added in duplicated in a 96-well plate on ice: 30 μL of 2×test compound and reference compound in 0.2 mg/mL HLM solution and 15 μL of 4×substrate solution. The 96-well assay plate and NADPH solution were pre-incubated at 37° C. for 5 minutes. 15 μL of pre-warmed 8 mM NADPH solution was added to into the assay plates to initiate the reaction. The assay plate was incubated at 37° C. 5 mins, 10 mins, and 45 mins. […]

CYP2D6 = target: T2, CYP2D6 (Homo sapiens, UniProt P10635); assay: CYP inhibition in HLM, CYP2D6; type: in vitro ADME; settings: read-out: CYP inhibition (IC50 um) 2D6
T2 construct: from tissue; host or cells: liver microsomes (HLM)
T2 sequence (P10635 whole entry): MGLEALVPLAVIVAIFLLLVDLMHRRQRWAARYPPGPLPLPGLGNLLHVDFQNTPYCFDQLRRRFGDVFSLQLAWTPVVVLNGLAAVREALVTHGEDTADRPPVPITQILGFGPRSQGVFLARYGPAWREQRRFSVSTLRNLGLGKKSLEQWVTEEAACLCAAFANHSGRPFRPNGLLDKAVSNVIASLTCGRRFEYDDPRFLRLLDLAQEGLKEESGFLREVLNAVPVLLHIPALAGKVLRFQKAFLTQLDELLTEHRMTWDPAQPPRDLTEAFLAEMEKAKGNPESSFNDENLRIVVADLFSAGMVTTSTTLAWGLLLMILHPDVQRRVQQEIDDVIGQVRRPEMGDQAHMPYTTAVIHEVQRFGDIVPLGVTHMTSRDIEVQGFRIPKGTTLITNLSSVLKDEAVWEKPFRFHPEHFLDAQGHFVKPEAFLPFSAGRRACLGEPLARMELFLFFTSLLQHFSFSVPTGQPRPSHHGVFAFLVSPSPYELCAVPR
Method: as §1, §2, §3

[2] = Log D octanol / potassium phosphate buffer; type: physicochemical; settings: octanol / potassium phosphate buffer (pH 7.4), 25° C.
Method: 10 μL of 10 mM stock solutions were placed into a 96-well plate. 300 μL of octanol into the plate was added to the plate. The plate was sealed and agitated on a plate shaker for 5 minutes. The plate was centrifuged at 2000 rpm for 5 minutes. The seal was removed and 600 μL of potassium phosphate buffer (pH 7.4) was added. The plate was sealed, and the two phases were mixed on the plate shaker vigorously for 1 hour at 25° C. The plate was centrifuged at 2000 rpm for 5 minutes after mixing and the seal was removed. 10 μL of water phase samples from the water phase plate was aspirated and mixed with 10 μL of water (1:2 dilution). 180 μL of 50% Ethanol was added into the water phase sample plate (1:10 dilution) to achieve 1:20 dilution. 50 μL of water phase sample was mixed with 100 μL of 50% Ethanol (containing IS) into the water phase sample plate to achieve 1:60 dilution. 10 μL from the octanol phase (the upper phase) was transfered into a new 96-well plate and 190 μL 50% Ethanol (1:20 dilution) was added. 10 μL of 1:20 diluted octanol samples were transferred into a new 96 deep-well plate and 390 μL 50% Ethanol (1:40 dilution) was added to achieve 1:800 dilution. 50 μL of 1:800 diluted octanol samples were transferred into a new 96-well plate again and 100 μL 50% ethanol with IS was added to achieve 1:2400 dilution. Samples were ready for LC/MS analysis.

[3] = read-out: Thermodynamic Solubility Solubility
[4] = read-out: Thermodynamic Solubility Solubility (um)

Compound	Protein Binding Category [1]	recovery at 5 h, 1 µM [1]	Protein Binding Fu(%) [1]	fraction unbound at 5 h, 1 μM [1]	solubility thermodynamic (Thermodynamic solubility; [3])	solubility thermodynamic (Thermodynamic solubility; [4])	IC50 (CYP2C19)	IC50 (CYP2D6)	logD [2]
CC(C)(NC(=O)[C@H]1[C@@H]2CNC[C@H]1C2)c1nc(C2CC2)c2ccccn12 [Compound 9, (1R,5S,6r)-N-(2-(1-cyclopropylimidazo[1,5-a]pyridin-3-yl)propan-2-yl)-3-azabicyclo[3.1.1]heptane-6-carboxamide]	Moderate	68.2%	40.9%	0.409	2250 µg/mL	6 mM	> 10 µM	> 10 µM	-0.11
CC(C)(NC(=O)[C@H]1[C@@H]2CNC[C@H]1C2)c1ncc2c(Cl)cccn12 [Compound 7, (1R,5S,6r)-N-(2-(8-chloroimidazo[1,5-a]pyridin-3-yl)propan-2-yl)-3-azabicyclo[3.1.1]heptane-6-carboxamide]	Moderate	96.6%	37.8%	0.378	1680 µg/mL	4.44 mM	> 10 µM	> 10 µM	-0.07
CC(C)(NC(=O)[C@H]1[C@@H]2CNC[C@H]1C2)c1ncc2c(Br)cccn12 [Compound 8, (1R,5S,6r)-N-(2-(8-bromoimidazo[1,5-a]pyridin-3-yl)propan-2-yl)-3-azabicyclo[3.1.1]heptane-6-carboxamide]	Moderate	103%	28.16%	0.282	2080 µg/mL	4.92 mM	> 10 µM	> 10 µM	-0.15
